Test results reported in patent US10221426B2, “Constitutively active PYR/PYL receptor proteins for improving plant stress tolerance” (The Regents of the University of California, priority 2009, dated 2019).

Biological target: T1, PYL4 and HAB1 (Arabidopsis thaliana, UniProt O80920)
T1 construct: vector pHB3; made in house
T1 sequence (O80920 1-207): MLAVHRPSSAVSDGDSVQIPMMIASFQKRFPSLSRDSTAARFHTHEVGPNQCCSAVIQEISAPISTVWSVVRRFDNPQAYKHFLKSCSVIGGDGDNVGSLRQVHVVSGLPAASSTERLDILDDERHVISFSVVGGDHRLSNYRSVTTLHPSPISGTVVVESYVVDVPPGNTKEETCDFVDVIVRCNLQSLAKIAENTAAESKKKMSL
T1 sequence (Q9CAJ0 23-511 partner): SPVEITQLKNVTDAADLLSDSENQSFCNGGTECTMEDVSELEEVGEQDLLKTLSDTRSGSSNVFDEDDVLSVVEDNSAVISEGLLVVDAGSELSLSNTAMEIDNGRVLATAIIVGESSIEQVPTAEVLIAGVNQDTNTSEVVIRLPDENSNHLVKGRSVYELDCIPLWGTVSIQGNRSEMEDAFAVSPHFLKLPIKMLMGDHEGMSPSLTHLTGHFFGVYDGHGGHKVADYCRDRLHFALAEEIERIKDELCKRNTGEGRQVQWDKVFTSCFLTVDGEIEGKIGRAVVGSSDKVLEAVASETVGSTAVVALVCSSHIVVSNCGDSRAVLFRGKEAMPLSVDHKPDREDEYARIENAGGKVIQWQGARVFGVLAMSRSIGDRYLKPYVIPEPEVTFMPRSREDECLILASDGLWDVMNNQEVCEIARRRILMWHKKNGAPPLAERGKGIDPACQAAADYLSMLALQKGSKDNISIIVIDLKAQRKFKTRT
Experiment: In vitro pull down assay of refolded PYL4 with HAB1
Assay type: binding
Description: To explore the functional implications of the PYR1-PP2C interaction, we examined if an ABA response could be reconstituted in vitro. Recombinant GST-HAB1, GST-ABI1 and GST-ABI2 were expressed in E. coli and tested for ligand-dependent interactions with 6×His-PYR1 in pull-down assays. Purified 6×His-PYR1 and GST-HAB1 (20 and 100 μg respectively, 8 μM PYR1 final concentration), were combined in 100 μl TBS containing 10 μM (+)-ABA or 1% DMSO for negative control. The reaction was incubated for 90 minutes at RT and 5 μl of PrepEase (USB) His-tagged protein purification resin was added. The resin and reaction mixture was incubated 30 min at RT with gentle shaking at 5 min intervals. The resin was washed five times with TBS containing 10 μM (+)-ABA. After the final wash, the bound protein was eluted in 20 μl SDS-PAGE buffer, boiled for 5 minutes and centrifuged. 5 μl of eluate was analyzed on SDS-PAGE. For pull-downs with ABI1 and ABI2, crude lysates were used in a similar method, except purified PP2C was replaced with cleared E. coli lysates. The amount of lysate added was determined by SDS-page analysis to yield ˜100 μg PP2C, such that the same stoichiometry was used as in assays using purified proteins.
A PYL4 6×His-tagged (SEQ ID NO:141) protein was constructed using a public pUni clone. This was recombined into the His-tagged expression vector pHB3. […]

SMILES: CC1=CC(=O)CC(C)(C)[C@@]1(O)/C=C/C(C)=C\C(=O)O [ABA, Abscisic acid]
- PYL4 binding to HAB1 in pull down: binds HAB1 in response to ABA
